Laboratory results published in PubChem BioAssay AID256 (DTP/NCI, 2004).
“And” between values parts separate entries of the source, which are not always exact repeats. Equal values may be shown once. Toxic doses and inconclusive results are not listed.

Test system: CD2F1 mice, L1210 leukemia ip, survival T/C
Assay: NCI In Vivo Anticancer Drug Screen. Data for tumor model L1210 Leukemia (intraperitoneal) in CD2F1 (CDF1) mice
Details: endpoint: mean survival time, higher = longer survival
Procedure, shortened: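 Implant tumor; dose compound or vehicle; measure endpoint in both groups; report treated divided by control.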

[1] = dose: 100.0 mg/kg/injection, schedule: Q04DX003 (ip), vehicle: saline with Tween-80
[2] = dose: 200.0 mg/kg/injection, schedule: Q04DX003 (ip), vehicle: saline with Tween-80
[3] = dose: 400.0 mg/kg/injection, schedule: Q04DX003 (ip), vehicle: saline with Tween-80
[4] = dose: 100.0 mg/kg/injection, schedule: Q01DX001 (ip), vehicle: saline
[5] = dose: 200.0 mg/kg/injection, schedule: Q01DX001 (ip), vehicle: saline
[6] = dose: 100.0 mg/kg/injection, schedule: Q01DX009 (ip), vehicle: saline with Tween-80

Question: Which T/C (dose: 12.5 mg/kg/injection, schedule: Q01DX005 (ip), vehicle: water) does the source give for `CCN(CC)Cc1cn(C2CC(O)C(CO)O2)c(=O)[nH]c1=O` (centres undefined) here?
Answer: The T/C was 100 % of control.

Question: And the T/C (dose: 25.0 mg/kg/injection, schedule: Q01DX005 (ip), vehicle: water)?
Answer: Its T/C is 104 % of control.

Question: What about the T/C (dose: 50.0 mg/kg/injection, schedule: Q01DX005 (ip), vehicle: water) of the same molecule?
Answer: Its T/C is 91 % of control.

Question: And the T/C (dose: 100.0 mg/kg/injection, schedule: Q01DX005 (ip), vehicle: water)?
Answer: The T/C was 100 % of control.

Question: What about the T/C (dose: 200.0 mg/kg/injection, schedule: Q01DX005 (ip), vehicle: water) of the same molecule?
Answer: Its T/C is 98 % of control.

Question: For `O.O=S(=O)(O)O.[NH-]C1CCCC1[NH-].[Pt+2]` (centres undefined), which T/C (dose: 0.5 mg/kg/injection, schedule: Q01DX009 (ip), vehicle: dextrose) is on record?
Answer: Its T/C is 116 % of control and 120 % of control.

Question: And the T/C (dose: 0.5 mg/kg/injection, schedule: Q04DX003 (ip), vehicle: dextrose)?
Answer: Its T/C is 102 % of control and 106 % of control.

Question: What about the T/C (dose: 1.0 mg/kg/injection, schedule: Q01DX001 (ip), vehicle: dextrose) of the same molecule?
Answer: The T/C was 100 % of control and 104 % of control.

Question: What about the T/C (dose: 1.0 mg/kg/injection, schedule: Q04DX003 (ip), vehicle: dextrose) of the same molecule?
Answer: Its T/C is 116 % of control and 112 % of control.

Question: And the T/C (dose: 2.0 mg/kg/injection, schedule: Q01DX009 (ip), vehicle: dextrose)?
Answer: Its T/C is 160 % of control.

Question: What about the T/C (dose: 2.0 mg/kg/injection, schedule: Q04DX003 (ip), vehicle: dextrose) of the same molecule?
Answer: The T/C was 119 % of control.

Question: What about the T/C (dose: 4.0 mg/kg/injection, schedule: Q01DX009 (ip), vehicle: dextrose) of the same molecule?
Answer: The T/C was 108 % of control.

Question: And the T/C (dose: 4.0 mg/kg/injection, schedule: Q04DX003 (ip), vehicle: other)?
Answer: Its T/C is 165 % of control.

Question: And the T/C (dose: 6.0 mg/kg/injection, schedule: Q01DX001 (ip), vehicle: dextrose)?
Answer: The T/C was 151 % of control.

Question: And the T/C (dose: 8.0 mg/kg/injection, schedule: Q04DX003 (ip), vehicle: dextrose)?
Answer: Its T/C is 160 % of control and 188 % of control.

Question: And the T/C (dose: 10.0 mg/kg/injection, schedule: Q01DX001 (ip), vehicle: dextrose)?
Answer: The T/C was 160 % of control.

Question: What about the T/C (dose: 16.0 mg/kg/injection, schedule: Q04DX003 (ip), vehicle: dextrose) of the same molecule?
Answer: The T/C was 102 % of control.

Question: What does the source list for `COc1cc(C=Nc2cc(Cl)c(O)c(Cl)c2)ccc1N(CCCl)CCCl`?
Answer: T/C (dose: 12.5 mg/kg/injection, schedule: Q01DX001 (ip), vehicle: carboxymethylcellulose (CMC)): 120 % of control; T/C (dose: 25.0 mg/kg/injection, schedule: Q01DX001 (ip), vehicle: carboxymethylcellulose (CMC)): 155 % of control

Question: For `O=[N+]([O-])c1ccc(N/N=C2/C3CCC(C3)C2C(O)(C(F)(F)F)C(F)(F)F)c([N+](=O)[O-])c1` (centres undefined), which T/C (dose: 50.0 mg/kg/injection, schedule: Q04DX003 (ip), vehicle: saline with Tween-80) is on record?
Answer: Its T/C is 94 % of control.

Question: What about the T/C [1] of the same molecule?
Answer: The T/C was 95 % of control.

Question: And the T/C [2]?
Answer: The T/C was 94 % of control.

Question: And the T/C [3]?
Answer: Its T/C is 103 % of control.

Question: What does the source list for `CC1(C)CC2(OC2c2ccccc2)C(=O)c2ccccc21` (centres undefined)?
Answer: T/C (dose: 12.5 mg/kg/injection, schedule: Q01DX009 (ip), vehicle: Klucel (hydroxypropylcellulose) (HPC)): 96 % of control; T/C (dose: 25.0 mg/kg/injection, schedule: Q01DX009 (ip), vehicle: Klucel (hydroxypropylcellulose) (HPC)): 92 % of control; T/C (dose: 50.0 mg/kg/injection, schedule: Q01DX009 (ip), vehicle: Klucel (hydroxypropylcellulose) (HPC)): 87 % of control; T/C (dose: 100.0 mg/kg/injection, schedule: Q01DX009 (ip), vehicle: Klucel (hydroxypropylcellulose) (HPC)): 96 % of control; T/C (dose: 200.0 mg/kg/injection, schedule: Q01DX009 (ip), vehicle: Klucel (hydroxypropylcellulose) (HPC)): 94 % of control; T/C (dose: 400.0 mg/kg/injection, schedule: Q01DX009 (ip), vehicle: Klucel (hydroxypropylcellulose) (HPC)): 94 % of control

Question: With `c1cnc(N2CC2)nn1` as the molecule, how does the T/C [4] read?
Answer: The T/C was 105 % of control.

Question: What about the T/C [5] of the same molecule?
Answer: Its T/C is 113 % of control.

Question: For `O=C1C=C(Nc2ccc([N+](=O)[O-])cc2)c2ccccc2C1=O`, which T/C (dose: 75.0 mg/kg/injection, schedule: Q01DX001 (ip), vehicle: saline) is on record?
Answer: Its T/C is 95 % of control.

Question: And the T/C (dose: 150.0 mg/kg/injection, schedule: Q01DX001 (ip), vehicle: saline)?
Answer: Its T/C is 91 % of control.

Question: Which T/C [6] does the source give for `COc1cc(OC)c(C(=O)CCl)c(O)c1Cl` here?
Answer: Its T/C is 93 % of control.

Question: What does the source list for `CCCOP(=S)(NCCOC)OCCC`?
Answer: T/C [1]: 103 % of control; T/C [2]: 101 % of control; T/C [3]: 103 % of control

Question: `COCC(=O)C(C(C)=O)C(c1ccc(OC)cc1)C(C(C)=O)C(=O)COC` (centres undefined) was tested. Which T/C (dose: 100.0 mg/kg/injection, schedule: Q01DX001 (ip), vehicle: saline with Tween-80) did it give?
Answer: Its T/C is 101 % of control.

Question: And the T/C (dose: 200.0 mg/kg/injection, schedule: Q01DX001 (ip), vehicle: saline with Tween-80)?
Answer: The T/C was 98 % of control.

Question: And the T/C (dose: 400.0 mg/kg/injection, schedule: Q01DX001 (ip), vehicle: saline with Tween-80)?
Answer: The T/C was 95 % of control.

Question: Which results are given for `O=[N+]([O-])c1ccc(N=Nc2ccc3c(c2)-c2ccccc2C3=P(c2ccccc2)(c2ccccc2)c2ccccc2)cc1`?
Answer: T/C (dose: 50.0 mg/kg/injection, schedule: Q01DX009 (ip), vehicle: saline with Tween-80): 94 % of control; T/C [6]: 91 % of control; T/C [1]: 91 % of control; T/C (dose: 200.0 mg/kg/injection, schedule: Q01DX009 (ip), vehicle: saline with Tween-80): 94 % of control; T/C [2]: 91 % of control

Question: Which results are given for `CC(=O)Nc1nc(CCCCc2ccccc2)cc(=O)[nH]1`?
Answer: T/C (dose: 37.5 mg/kg/injection, schedule: Q01DX001 (ip), vehicle: saline with Tween-80): 100 % of control; T/C (dose: 75.0 mg/kg/injection, schedule: Q01DX001 (ip), vehicle: saline with Tween-80): 96 % of control; T/C (dose: 150.0 mg/kg/injection, schedule: Q01DX001 (ip), vehicle: saline with Tween-80): 94 % of control

Question: Which T/C [4] does the source give for `CC(C)(O)C(=NCc1ccccc1)c1ccccc1` here?
Answer: Its T/C is 102 % of control.

Question: What about the T/C [5] of the same molecule?
Answer: The T/C was 93 % of control.

Question: And the T/C (dose: 400.0 mg/kg/injection, schedule: Q01DX001 (ip), vehicle: saline)?
Answer: The T/C was 104 % of control.

Question: What does the source list for `CC1(C)CC(=O)C2(C)CCC(=O)C=C2C1` (centres undefined)?
Answer: T/C [1]: 101 % of control; T/C [2]: 100 % of control; T/C [3]: 100 % of control
